From article PMC5974779, “Prediction of Drug-Induced Hepatotoxicity Using Long-Term Stable Primary Hepatic 3D Spheroid Cultures in Chemically Defined Conditions” (Toxicological Sciences, 2018)
Structures can show the parent of a compound that is named as a salt. Where two headings read alike, the source gives them in different places.

Tests used:
PHH 2D sandwich cultures = conditions: cited from earlier work; for hepatotoxicity detection in 2D sandwich cultures of PHH: 100× cmax, 24 h, high content imaging
[1] = system: primary human hepatocytes (PHH) 3D spheroids
[2] = cited from earlier work
clinical DILI in man = conditions: in vivo; cited from earlier work
[3] = PHH 2D sandwich cultures, 100x Cmax, ref Xu 2008
[4] = therapeutic total cmax, ref PMID

Q: With N[C@@H](Cc1ccc(O)c(O)c1)C(=O)O [Levodopa] as the molecule, how does the “2Dsw (Xu 2008) 100x” value (PHH 2D sandwich cultures; [3]) read?
A: Its value is “Negative”.

Q: What about the “Chemically defined spheroids (this study) 20x” value (“Chemically defined spheroids” for short) [1] of the same molecule?
A: The value was “Negative”.

Q: What about the Cmax [2, 4] of the same molecule?
A: The Cmax was 6850 nM.

Q: With CN1CCN(CCCN2c3ccccc3Sc3ccc(C(F)(F)F)cc32)CC1 [Trifluoperazine] as the molecule, how does the “hepatotoxicity detection in 2D sandwich cultures of PHH” value (PHH 2D sandwich cultures; ref Xu et al., 2008) read?
A: The value was “flagged as hepatotoxic”.

Q: And the “2Dsw (Xu 2008) 100x” value (PHH 2D sandwich cultures; [3])?
A: The value was “Positive”.

Q: And the “reactive oxygen species levels in 2D sandwich cultures of PHH” value (PHH 2D sandwich cultures; ref Xu et al., 2008)?
A: The value was “only slight increases in reactive oxygen species levels”.

Q: What about the “Chemically defined spheroids” value [1] of the same molecule?
A: The value was “Negative”.

Q: What about the “hepatotoxicity evaluation in CD-spheroids” value [1] of the same molecule?
A: Its value is “predicted to be DILI negative”.

Q: And the Cmax [2, 4]?
A: The Cmax was 4.5 nM.

Q: And the Classified as (clinical DILI in man)?
A: The Classified as was “POS”.

Q: And the “Clinical DILI class (panel heading of Figure 4)” value (shortened to “Clinical DILI class”) (clinical DILI in man)?
A: The value was “High DILI concern”.

Q: And the DILI in vivo (clinical DILI in man)?
A: Its DILI in vivo is “POS”.

Q: What about the “FDA (0-8)” value (clinical DILI in man) of the same molecule?
A: The value was 2.

Q: And the “FDA (Severity)” value (clinical DILI in man)?
A: Its value is “less DILI concern”.

Q: What about the “O'Brien et al. (2003)” value (clinical DILI in man) of the same molecule?
A: The value was “Moderately”.

Q: And the “Type of DILI” value (clinical DILI in man)?
A: Its value is “Cholestatic injury or Mixed hepatitis”.

Q: What about the “Xu et al. (2008)” value (clinical DILI in man) of the same molecule?
A: Its value is “Positive”.

Q: Which results are given for Clc1ccc(COC(Cn2ccnc2)c2ccc(Cl)cc2Cl)c(Cl)c1 (centres unmarked) [Miconazole]?
A: Chemically defined spheroids (this study) 20x [1]: Negative; Cmax [2, 4]: 24 nM

Q: Which results are given for CC(N/C(=N\C#N)Nc1ccncc1)C(C)(C)C (centres unmarked) [Pinacidil]?
A: 2Dsw (Xu 2008) 100x (PHH 2D sandwich cultures; [3]): Negative; Chemically defined spheroids (this study) 20x [1]: Negative; Cmax [2, 4]: 290 nM; Classified as (clinical DILI in man): NEG; Clinical DILI class (panel heading of Figure 4) (clinical DILI in man): DILI negative; DILI in vivo (clinical DILI in man): NEG; Type of DILI (clinical DILI in man): Non-hepatotoxic

Q: With CCN(CC)C(=S)SSC(=S)N(CC)CC [Disulfiram] as the molecule, how does the “Chemically defined spheroids” value [1] read?
A: The value was “Positive”.

Q: And the Cmax [2, 4]?
A: Its Cmax is 1350 nM.

Q: With CN(C)CCCN1c2ccccc2CCc2ccc(Cl)cc21 [Clomipramine] as the molecule, how does the “hepatotoxicity detection in 2D sandwich cultures of PHH” value (PHH 2D sandwich cultures; ref Xu et al., 2008) read?
A: The value was “liver toxicity was not recognized”.

Q: What about the “Chemically defined spheroids” value [1] of the same molecule?
A: Its value is “Positive”.

Q: For COC(=O)C1=C(C)NC(C)=C(C(=O)OCCN(C)Cc2ccccc2)C1c1cccc([N+](=O)[O-])c1 (centres unmarked) [Nicardipine], which Cmax [2, 4] is on record?
A: The Cmax was 80 nM.

Q: With CCN(CC)C(=O)N1CCN(C)CC1 [Diethylcarbamazine] as the molecule, how does the “Chemically defined spheroids” value [1] read?
A: Its value is “Negative”.

Q: And the Cmax [2, 4]?
A: Its Cmax is 1630 nM.

Q: With N=C(N)NC(=O)c1nc(Cl)c(N)nc1N [Amiloride] as the molecule, how does the “2Dsw (Xu 2008) 100x” value (PHH 2D sandwich cultures) read?
A: The value was “Negative”.

Q: What about the “Chemically defined spheroids” value [1] of the same molecule?
A: The value was “Negative”.

Q: And the Cmax [2, 4]?
A: Its Cmax is 87 nM.

Q: What about the Classified as (clinical DILI in man) of the same molecule?
A: The Classified as was “NEG”.

Q: And the “Clinical DILI class” value (clinical DILI in man)?
A: The value was “DILI negative”.

Q: And the DILI in vivo (clinical DILI in man)?
A: The DILI in vivo was “NEG”.

Q: What about the “FDA (0-8)” value (clinical DILI in man) of the same molecule?
A: The value was 3.

Q: What about the “Suzuki et al. (2010)” value (clinical DILI in man) of the same molecule?
A: Its value is 2.

Q: What about the “Type of DILI” value (clinical DILI in man) of the same molecule?
A: The value was “Non-hepatotoxic”.

Q: And the “Xu et al. (2008)” value (clinical DILI in man)?
A: Its value is “Negative”.

Q: With NS(=O)(=O)c1cc(C(=O)O)c(NCc2ccco2)cc1Cl [Furosemide] as the molecule, how does the “2Dsw (Xu 2008) 100x” value (PHH 2D sandwich cultures; [3]) read?
A: The value was “Negative”.

Q: Which “2Dsw (Xu 2008) 100x” value (PHH 2D sandwich cultures) does the source give for C=C[C@H]1C[N@@]2CC[C@H]1C[C@@H]2[C@@H](O)c1ccnc2ccc(OC)cc12 [Quinidine] here?
A: The value was “Positive”.

Q: What about the “Chemically defined spheroids” value [1] of the same molecule?
A: The value was “Positive”.

Q: What about the Cmax [2, 4] of the same molecule?
A: Its Cmax is 8660 nM.

Q: Which “Chemically defined spheroids” value [1] does the source give for COc1ccc([C@@H]2Sc3ccccc3N(CCN(C)C)C(=O)[C@@H]2OC(C)=O)cc1 [Diltiazem] here?
A: The value was “Negative”.

Q: What about the Cmax [2, 4] of the same molecule?
A: The Cmax was 327 nM.

Q: With CN(C)[C@@H]1C(O)=C(C(N)=O)C(=O)[C@@]2(O)C(O)=C3C(=O)c4c(O)cccc4[C@@](C)(O)[C@H]3C[C@@H]12 [Tetracycline] as the molecule, how does the Classified as (clinical DILI in man) read?
A: Its Classified as is “POS”.

Q: And the “Clinical DILI class” value (clinical DILI in man)?
A: The value was “High DILI concern”.

Q: And the DILI in vivo (clinical DILI in man)?
A: Its DILI in vivo is “POS”.

Q: And the “FDA (0-8)” value (clinical DILI in man)?
A: Its value is 2.

Q: What about the “FDA (Severity)” value (clinical DILI in man) of the same molecule?
A: The value was “less DILI concern”.

Q: What about the “Guo et al. (2005)” value (clinical DILI in man) of the same molecule?
A: The value was 3.

Q: What about the “O'Brien et al. (2003)” value (clinical DILI in man) of the same molecule?
A: The value was “Moderately”.

Q: And the “Sakatis et al. (2012)” value (clinical DILI in man)?
A: Its value is “Hepatotoxic”.

Q: And the “Suzuki et al. (2010)” value (clinical DILI in man)?
A: The value was 1.

Q: What about the “Type of DILI” value (clinical DILI in man) of the same molecule?
A: Its value is “Hepatocellular injury”.

Q: And the “Xu et al. (2008)” value (clinical DILI in man)?
A: The value was “Positive”.

Q: Which results are given for NCCCC[C@H](N[C@@H](CCc1ccccc1)C(=O)O)C(=O)N1CCC[C@H]1C(=O)O [Lisinopril]?
A: hepatotoxicity detection in 2D sandwich cultures of PHH (PHH 2D sandwich cultures; ref Xu et al., 2008): liver toxicity was not recognized; Chemically defined spheroids (this study) 20x [1]: Positive; Cmax [2, 4]: 660 nM

Q: For COCCOC(=O)C1=C(C)NC(C)=C(C(=O)OC(C)C)C1c1cccc([N+](=O)[O-])c1 (centres unmarked) [Nimodipine], which “2Dsw (Xu 2008) 100x” value (PHH 2D sandwich cultures; [3]) is on record?
A: Its value is “Positive”.

Q: And the “Chemically defined spheroids” value [1]?
A: The value was “Positive”.

Q: And the Cmax [2, 4]?
A: Its Cmax is 110 nM.

Q: What does the source list for O=c1ccc2ccccc2o1 [Coumarin]?
A: Chemically defined spheroids (this study) 20x [1]: Positive; Cmax [2, 4]: 10000 nM; Classified as (clinical DILI in man): POS; Clinical DILI class (panel heading of Figure 4) (clinical DILI in man): High DILI concern; DILI in vivo (clinical DILI in man): POS; Type of DILI (clinical DILI in man): Cholestatic injury

Q: With CC(C)NCC(O)COc1cccc2[nH]ccc12 (centres unmarked) [Pindolol] as the molecule, how does the “2Dsw (Xu 2008) 100x” value (PHH 2D sandwich cultures; [3]) read?
A: The value was “Negative”.

Q: What about the Cmax [2, 4] of the same molecule?
A: The Cmax was 270 nM.

Q: What about the Classified as (clinical DILI in man) of the same molecule?
A: Its Classified as is “NEG”.

Q: What about the “Clinical DILI class” value (clinical DILI in man) of the same molecule?
A: The value was “DILI negative”.

Q: What about the DILI in vivo (clinical DILI in man) of the same molecule?
A: The DILI in vivo was “NEG”.

Q: And the “FDA (0-8)” value (clinical DILI in man)?
A: Its value is 0.

Q: And the “Type of DILI” value (clinical DILI in man)?
A: The value was “Non-hepatotoxic”.

Q: And the “Xu et al. (2008)” value (clinical DILI in man)?
A: Its value is “Negative”.

Q: Which “Chemically defined spheroids” value [1] does the source give for CC(=O)CC(c1ccccc1)c1c(O)c2ccccc2oc1=O (centres unmarked) [Warfarin] here?
A: Its value is “Negative”.

Q: And the Cmax [2, 4]?
A: Its Cmax is 4860 nM.

Q: For CC(C)NCC(O)COc1ccc(CC(N)=O)cc1 (centres unmarked) [Atenolol], which “2Dsw (Xu 2008) 100x” value (PHH 2D sandwich cultures; [3]) is on record?
A: Its value is “Negative”.

Q: Which “Chemically defined spheroids” value [1] does the source give for CCC(=O)OCC(=O)[C@@]1(OC(=O)CC)[C@@H](C)C[C@H]2[C@@H]3CCC4=CC(=O)C=C[C@]4(C)[C@@]3(Cl)[C@@H](O)C[C@@]21C [Beclomethasone Dipropionate] here?
A: The value was “Negative”.

Q: And the Cmax [2, 4]?
A: Its Cmax is 0.15 nM.

Q: What does the source list for CC(=O)Nc1ccc(OCC(O)CNC(C)C)cc1 (centres unmarked) [Practolol]?
A: Chemically defined spheroids (this study) 20x [1]: Negative; Cmax [2, 4]: 18800 nM

Q: With CN(C)CCC(c1ccc(Br)cc1)c1ccccn1 (centres unmarked) [Brompheniramine Maleate] as the molecule, how does the “Chemically defined spheroids” value [1] read?
A: Its value is “Negative”.

Q: And the Cmax [2, 4]?
A: Its Cmax is 27 nM.

Q: For O=C(O)c1cc(/N=N/c2ccc(S(=O)(=O)Nc3ccccn3)cc2)ccc1O [Sulfasalazine], which “Chemically defined spheroids” value [1] is on record?
A: Its value is “Positive”.

Q: And the Cmax [2, 4]?
A: Its Cmax is 15100 nM.

Q: Which Cmax ([2]; human, in vivo) does the source give for CN(C)C(=O)C(CCN1CCC(O)(c2ccc(Cl)cc2)CC1)(c1ccccc1)c1ccccc1 [Loperamide] here?
A: Its Cmax is 7.8 nM.
